Key:
Type in all cases: in vivo
[1] = test system: Echinochloa oryzicola (barnyard grass); test: Test Example-1: herbicidal effect by a treatment before weeds are generated under submerged conditions; settings: 500 g a.i/ha, pre-emergence treatment, about 15 days after treatment, score 0-5
Outline: (§1)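 Treatment is made before weed emergence: seeds sit in puddled, submerged paddy soil and receive the diluted wettable powder or emulsifiable concentrate into the water at a fixed dosage. Rating on a 0–5 scale follows after around 15 days.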

[2] = test system: Eleocharis acicularis (needle spikerush); test: as above; settings: 500 g a.i/ha, pre-emergence treatment, about 15 days after treatment, score 0-5
Outline: as §1

[3] = test system: Monochoria vaginalis (monochoria); test: as above; settings: 500 g a.i/ha, pre-emergence treatment, about 15 days after treatment, score 0-5
Outline: as §1

[4] = test system: Cyperus difformis (smallflower umbrella plant); test: as above; settings: 500 g a.i/ha, pre-emergence treatment, about 15 days after treatment, score 0-5
Outline: as §1

[5] = test system: other annual broad leaf weeds (Lindernia procumbens, Rotala indica, Elatine triandra); test: as above; settings: 500 g a.i/ha, pre-emergence treatment, about 15 days after treatment, score 0-5
Outline: as §1

[6] = test system: Scirpus juncoides (bulrush); test: as above; settings: 500 g a.i/ha, pre-emergence treatment, about 15 days after treatment, score 0-5
Outline: as §1

[7] = test system: Amaranthus viridis (green amaranthus); test: Test Example-2: herbicidal effect by a soil treatment before weeds are generated under upland field conditions; settings: application amount 500 g a.i/ha, soil spray treatment before weeds are generated, about 21 days after the treatment, score 0 to 5
Outline: (§2)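 Pre-emergence soil treatment: seeds sown in upland soil and covered with about 0.5 cm soil were sprayed the next day with diluted wettable powder or emulsifiable concentrate at a predetermined dosage. Weed control and corn injury were scored on a 0–5 scale about 21 days after treatment.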

[8] = test system: Chenopodium album (common lambsquarters); test: as above; settings: application amount 500 g a.i/ha, soil spray treatment before weeds are generated, about 21 days after the treatment, score 0 to 5
Outline: as §2

[9] = test system: Amaranthus viridis (green amaranthus); test: Test Example-4: herbicidal effect by a foliage treatment after weeds are generated under upland field conditions; settings: 500 g a.i/ha, foliage treatment after emergence, about 14 days after treatment, score 0-5
Outline: (§3)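 Sown seeds, under about 0.5 cm of soil cover in upland soil, grew for 14 days before compound application. A wettable powder or emulsifiable concentrate, diluted to a predetermined dosage, was sprayed over foliage in 4000 L/ha water, with scoring on a 0–5 scale after roughly 14 days.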

[10] = test system: Chenopodium album (common lambsquarters); test: as above; settings: 500 g a.i/ha, foliage treatment after emergence, about 14 days after treatment, score 0-5
Outline: as §3

[11] = test system: Abutilon theophrasti (velvetleaf); test: as above; settings: 500 g a.i/ha, foliage treatment after emergence, about 14 days after treatment, score 0-5
Outline: as §3

corn [12] = test: Test Example-4: phytotoxicity by a foliage treatment after weeds are generated under upland field conditions; settings: 500 g a.i/ha, foliage treatment after emergence, about 14 days after treatment, score 0-5
Outline: as §3

corn [13] = test: Test Example-2: phytotoxicity by a soil treatment before weeds are generated under upland field conditions; settings: application amount 500 g a.i/ha, soil spray treatment before weeds are generated, about 21 days after the treatment, score 0 to 5
Outline: as §2

C=C(C)COc1cc(-c2c(Cl)n3n(c2=O)CCCC3)c(F)cc1Cl [Example 1-214]
Herbicidal effect Echinochloa oryzicola [1]: 5 (Herbicidal effect/phytotoxicity was 90% or greater)
Herbicidal effect Eleocharis acicularis [2]: 5 (Herbicidal effect/phytotoxicity was 90% or greater)
Herbicidal effect Monochoria vaginalis [3]: 5 (Herbicidal effect/phytotoxicity was 90% or greater)
Herbicidal effect Cyperus difformis [4]: 5 (Herbicidal effect/phytotoxicity was 90% or greater)
Herbicidal effect Broadleaf weed [5]: 5 (Herbicidal effect/phytotoxicity was 90% or greater)
Herbicidal effect Scirpus juncoides [6]: 5 (Herbicidal effect/phytotoxicity was 90% or greater)
Herbicidal effect Amaranthus viridis [7]: 5 (Herbicidal effect/phytotoxicity was 90% or greater)
Herbicidal effect Chenopodium album [8]: 5 (Herbicidal effect/phytotoxicity was 90% or greater)
Herbicidal effect Amaranthus viridis [9]: 5 (Herbicidal effect/phytotoxicity was 90% or greater)
Herbicidal effect Chenopodium album [10]: 5 (Herbicidal effect/phytotoxicity was 90% or greater)
Herbicidal effect Abutilon theophrast [11]: 5 (Herbicidal effect/phytotoxicity was 90% or greater)
Phytotoxicity Corn (corn [12]): 2 (Herbicidal effect/phytotoxicity was 30% to 50%)
Phytotoxicity Corn (corn [13]): 0 (Herbicidal effect/phytotoxicity was 0% to 10%)
